Test results: article PMC5356695, “A phase 1 study of oral ridaforolimus in pediatric patients with advanced solid tumors” (Oncotarget, 2016)
Where two headings read alike, the source gives them in different places.

System: pediatric patients with advanced solid tumors
Conditions: for Leukopenia (treatment-related AE): laboratory values only
Protocol: This phase 1, multicenter, open-label study was conducted at a total of 8 study sites (3 study sites in the United States and 5 Innovative Therapies for Children with Cancer [ITCC] Consortium centers [2 in the United Kingdom and 3 in France]) between January 31, 2012, and the data cutoff, January 14, 2014 (ClinicalTrials.gov identifier NCT01431534; European Clinical Trials Database [EudraCT] number 2011-000729-55). An enteric-coated tablet formulation of ridaforolimus was orally administered for 5 consecutive days and not administered for 2 consecutive days per week in 28-day cycles until progression, unacceptable toxicity, or consent withdrawal. […] Dose escalation was conducted by using a modified toxicity probability intervals method that targeted a 30% DLT rate and started at 22 mg/m^2 (the equivalent of the adult RP2D [27], a 40-mg dose in adults with a BSA of 1.8 m^2). […] Dosing was adjusted based on BSA and rounded to the nearest 10-mg tablet. Patients were to be treated at sequentially rising dose levels until a preliminary MTD was identified.
Toxicity was graded according to the National Cancer Institute Common Terminology Criteria for Adverse Events, version 4.0 [42]. Safety data were reported for all patients who received at least 1 dose of the study drug. […] Once the RP2D of ridaforolimus was defined, an expansion cohort to be treated at the RP2D was planned to obtain additional safety, tolerability, and pharmacokinetic data.

Compound: CO[C@H]1C[C@@H]2CC[C@@H](C)[C@@](O)(O2)C(=O)C(=O)N2CCCC[C@H]2C(=O)O[C@H]([C@H](C)C[C@@H]2CC[C@@H](OP(C)(C)=O)[C@H](OC)C2)CC(=O)[C@H](C)/C=C(\C)[C@@H](O)[C@@H](OC)C(=O)[C@H](C)C[C@H](C)/C=C/C=C/C=C/1C [ridaforolimus]
- Increased alkaline phosphatase (treatment-related AE) (33 mg/m^2 n = 13, grades 3–4): 0 n (%)
- Increased bilirubin (treatment-related AE) (33 mg/m^2 n = 13, grades 3–4): 0 n (%)
- Increased γ-glutamyltransferase (treatment-related AE) (33 mg/m^2 n = 13, grades 3–4): 1 (8) n (%)
- Lymphopenia (treatment-related AE) (33 mg/m^2 n = 13, grades 3–4): 1 (8) n (%)
- Nausea (treatment-related AE) (33 mg/m^2 n = 13, grades 3–4): 0 n (%)
- Neutropenia (treatment-related AE) (33 mg/m^2 n = 13, grades 3–4): 1 (8) n (%)
- Oral herpes (treatment-related AE) (33 mg/m^2 n = 13, grades 3–4): 0 n (%)
- Patients with ≥1 treatment-related adverse event (33 mg/m^2 n = 13, grades 3–4): 5 (38) n (%)
- Photophobia (treatment-related AE) (33 mg/m^2 n = 13, grades 3–4): 0 n (%)
- Rash (treatment-related AE) (33 mg/m^2 n = 13, grades 3–4): 0 n (%)
- Stomatitis (treatment-related AE) (33 mg/m^2 n = 13, grades 3–4): 0 n (%)
- Thrombocytopenia (treatment-related AE) (33 mg/m^2 n = 13, grades 3–4): 1 (8) n (%)
- Vomiting (treatment-related AE) (33 mg/m^2 n = 13, grades 3–4): 0 n (%)
- Leukopenia (treatment-related AE) (33 mg/m^2 n = 13, grades 3–4): 0 n (%)
- Anemia (treatment-related AE) (Total N = 20, any grade): 8 (40) n (%)
- Decreased appetite (treatment-related AE) (Total N = 20, any grade): 2 (10) n (%)
- Decreased weight (treatment-related AE) (Total N = 20, any grade): 2 (10) n (%)
- Diarrhea (treatment-related AE) (Total N = 20, any grade): 2 (10) n (%)
- Dry mouth (treatment-related AE) (Total N = 20, any grade): 2 (10) n (%)
- Dysgeusia (treatment-related AE) (Total N = 20, any grade): 3 (15) n (%)
- Epistaxis (treatment-related AE) (Total N = 20, any grade): 2 (10) n (%)
- Fatigue (treatment-related AE) (Total N = 20, any grade): 9 (45) n (%)
- Headache (treatment-related AE) (Total N = 20, any grade): 3 (15) n (%)
- Hypercholesterolemia (treatment-related AE) (Total N = 20, any grade): 9 (45) n (%)
- Hyperglycemia (treatment-related AE) (Total N = 20, any grade): 2 (10) n (%)
- Hypertriglyceridemia (treatment-related AE) (Total N = 20, any grade): 10 (50) n (%)
- Hypocalcemia (treatment-related AE) (Total N = 20, any grade): 2 (10) n (%)
- Hypokalemia (treatment-related AE) (Total N = 20, any grade): 2 (10) n (%)
- Hypophosphatemia (treatment-related AE) (Total N = 20, any grade): 5 (25) n (%)
- Increased ALT (treatment-related AE) (Total N = 20, any grade): 10 (50) n (%)
- Increased AST (treatment-related AE) (Total N = 20, any grade): 8 (40) n (%)
- Increased alkaline phosphatase (treatment-related AE) (Total N = 20, any grade): 2 (10) n (%)
- Increased bilirubin (treatment-related AE) (Total N = 20, any grade): 2 (10) n (%)
- Increased γ-glutamyltransferase (treatment-related AE) (Total N = 20, any grade): 5 (25) n (%)
- Lymphopenia (treatment-related AE) (Total N = 20, any grade): 2 (10) n (%)
- Nausea (treatment-related AE) (Total N = 20, any grade): 6 (30) n (%)
- Neutropenia (treatment-related AE) (Total N = 20, any grade): 6 (30) n (%)
- Oral herpes (treatment-related AE) (Total N = 20, any grade): 2 (10) n (%)
- Patients with ≥1 treatment-related adverse event (Total N = 20, any grade): 19 (95) n (%)
- Photophobia (treatment-related AE) (Total N = 20, any grade): 3 (15) n (%)
- Rash (treatment-related AE) (Total N = 20, any grade): 2 (10) n (%)
- Stomatitis (treatment-related AE) (Total N = 20, any grade): 15 (75) n (%)
- Thrombocytopenia (treatment-related AE) (Total N = 20, any grade): 13 (65) n (%)
- Vomiting (treatment-related AE) (Total N = 20, any grade): 3 (15) n (%)
- Leukopenia (treatment-related AE) (Total N = 20, any grade): 7 (35) n (%)
- Anemia (treatment-related AE) (Total N = 20, grades 3–4): 0 n (%)
- Decreased appetite (treatment-related AE) (Total N = 20, grades 3–4): 0 n (%)
- Decreased weight (treatment-related AE) (Total N = 20, grades 3–4): 0 n (%)
- Diarrhea (treatment-related AE) (Total N = 20, grades 3–4): 0 n (%)
- Dry mouth (treatment-related AE) (Total N = 20, grades 3–4): 0 n (%)
- Dysgeusia (treatment-related AE) (Total N = 20, grades 3–4): 0 n (%)
- Epistaxis (treatment-related AE) (Total N = 20, grades 3–4): 0 n (%)
- Fatigue (treatment-related AE) (Total N = 20, grades 3–4): 0 n (%)
- Headache (treatment-related AE) (Total N = 20, grades 3–4): 0 n (%)
- Hypercholesterolemia (treatment-related AE) (Total N = 20, grades 3–4): 1 (5) n (%)
- Hyperglycemia (treatment-related AE) (Total N = 20, grades 3–4): 0 n (%)
- Hypertriglyceridemia (treatment-related AE) (Total N = 20, grades 3–4): 1 (5) n (%)
- Hypocalcemia (treatment-related AE) (Total N = 20, grades 3–4): 0 n (%)
- Hypokalemia (treatment-related AE) (Total N = 20, grades 3–4): 0 n (%)
- Hypophosphatemia (treatment-related AE) (Total N = 20, grades 3–4): 1 (5) n (%)
- Increased ALT (treatment-related AE) (Total N = 20, grades 3–4): 5 (25) n (%)
- Increased AST (treatment-related AE) (Total N = 20, grades 3–4): 1 (5) n (%)
- Increased alkaline phosphatase (treatment-related AE) (Total N = 20, grades 3–4): 0 n (%)
- Increased bilirubin (treatment-related AE) (Total N = 20, grades 3–4): 0 n (%)
- Increased γ-glutamyltransferase (treatment-related AE) (Total N = 20, grades 3–4): 1 (5) n (%)
- Lymphopenia (treatment-related AE) (Total N = 20, grades 3–4): 1 (5) n (%)
- Nausea (treatment-related AE) (Total N = 20, grades 3–4): 0 n (%)
- Neutropenia (treatment-related AE) (Total N = 20, grades 3–4): 1 (5) n (%)
- Oral herpes (treatment-related AE) (Total N = 20, grades 3–4): 1 (5) n (%)
- Patients with ≥1 treatment-related adverse event (Total N = 20, grades 3–4): 9 (45) n (%)
- Photophobia (treatment-related AE) (Total N = 20, grades 3–4): 0 n (%)
- Rash (treatment-related AE) (Total N = 20, grades 3–4): 0 n (%)
- Stomatitis (treatment-related AE) (Total N = 20, grades 3–4): 0 n (%)
- Thrombocytopenia (treatment-related AE) (Total N = 20, grades 3–4): 2 (10) n (%)
- Vomiting (treatment-related AE) (Total N = 20, grades 3–4): 0 n (%)
- Leukopenia (treatment-related AE) (Total N = 20, grades 3–4): 0 n (%)
- Anemia, treatment-related (all patients, N = 20): 40%
- Fatigue, treatment-related (all patients, N = 20): 45%
- Hypercholesterolemia, treatment-related (all patients, N = 20): 45%
- Hypertriglyceridemia, treatment-related (all patients, N = 20): 50%
- Increased ALT, treatment-related (all patients, N = 20): 50%
- Increased aspartate aminotransferase (AST), treatment-related (all patients, N = 20): 40%
- Leukopenia, treatment-related (all patients, N = 20): 35%
- Nausea, treatment-related (all patients, N = 20): 30%
- Neutropenia, treatment-related (all patients, N = 20): 30%
- Patients with at least 1 treatment-related adverse event (all patients, N = 20): 95%
- Serious adverse events related to study treatment (all patients, N = 20): 15%
- Stomatitis, treatment-related (all patients, N = 20): 75%
- Thrombocytopenia, treatment-related (all patients, N = 20): 65%
- Treatment-related grade 3/4 increased ALT (all patients, N = 20): 25%
- Treatment-related grade 3/4 thrombocytopenia (all patients, N = 20): 10%
- Treatment-related grade 3/4 adverse events (all patients, N = 20 (9 patients)): 45%
- Serious adverse events (all patients, N = 20 (12 patients), most disease related): 60%
- Time to DLT onset, days (dose level 3, 33 mg/m^2, cycle 1): 22 (cycle 1) days
- Recommended phase 2 dose (RP2D) for oral ridaforolimus in children (once daily 5 days/week): 33 mg/m^2
- Deaths / grade 5 adverse events related to ridaforolimus (three deaths during the study): No deaths were considered related to ridaforolimus
